Values belong to the compound of their own block, whether it stands above or below them.
What was measured:
[1] = biological target: T1, fMet-Leu-Phe receptor (Homo sapiens) (UniProt P21462); test: Antagonist activity at human recombinant FPR1 in expressed in HEK293 cells assessed as inhibition of FMLP-stimulated intracellular calcium mobilisation at 30 uM after 1 hr by FLIPR assay; format: functional, cell-based
T1 sequence (whole entry): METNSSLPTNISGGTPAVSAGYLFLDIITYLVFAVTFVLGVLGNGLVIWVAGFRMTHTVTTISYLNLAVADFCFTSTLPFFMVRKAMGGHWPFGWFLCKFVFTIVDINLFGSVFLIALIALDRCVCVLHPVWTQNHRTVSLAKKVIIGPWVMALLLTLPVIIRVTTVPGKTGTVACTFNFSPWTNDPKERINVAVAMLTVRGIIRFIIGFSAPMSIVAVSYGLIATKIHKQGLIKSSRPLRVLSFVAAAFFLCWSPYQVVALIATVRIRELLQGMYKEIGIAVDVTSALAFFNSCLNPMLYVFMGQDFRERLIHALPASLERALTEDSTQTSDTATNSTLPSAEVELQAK

[2] = biological target: T2, fMet-Leu-Phe receptor (Homo sapiens, UniProt P21462); test: Antagonist activity at human recombinant FPR1 in expressed in HEK293 cells assessed as inhibition of FMLP-stimulated intracellular calcium mobilisation after 1 hr by FLIPR assay; format: functional, cell-based
T2 sequence (P21462 whole entry): T1 sequence (whole entry)

[3] = test system: Liver; test: Intrinsic clearance in rat liver microsomes assessed as media loss of parent compound per million cells
[4] = Intrinsic clearance in Sprague-Dawley rat hepatocytes assessed per 10^6 cells measured after 90 mins
[5] = Volume of distribution at steady state in Sprague-Dawley rat at 2 mg/kg, iv; format: ADME, organism-based; set-up: dose 2 mg/kg, route intravenous; details: in vivo, read-out: Vdss
[6] = Distribution coefficient, log D of compound; format: physicochemical; details: octanol/water
[7] = test system: THP-1; test: Cytotoxicity against human THP1 cells; format: cell-based
[8] = biological target: T2, fMet-Leu-Phe receptor; test: Antagonist activity at FPR1 in human neutrophils assessed as AB/fMLF-stimulated upregulation of CD11b expression preincubated for 30 mins before AB/FMLF challenge measured after 50 mins using FITC staining by flow cytometry; format: functional; details: read-out: pA2 (converted)
[9] = biological target: Cytochrome P450 3A4 (Homo sapiens, UniProt P08684); test: Inhibition of CYP3A4; format: ADME
Sequence of Cytochrome P450 3A4 (P08684 whole entry): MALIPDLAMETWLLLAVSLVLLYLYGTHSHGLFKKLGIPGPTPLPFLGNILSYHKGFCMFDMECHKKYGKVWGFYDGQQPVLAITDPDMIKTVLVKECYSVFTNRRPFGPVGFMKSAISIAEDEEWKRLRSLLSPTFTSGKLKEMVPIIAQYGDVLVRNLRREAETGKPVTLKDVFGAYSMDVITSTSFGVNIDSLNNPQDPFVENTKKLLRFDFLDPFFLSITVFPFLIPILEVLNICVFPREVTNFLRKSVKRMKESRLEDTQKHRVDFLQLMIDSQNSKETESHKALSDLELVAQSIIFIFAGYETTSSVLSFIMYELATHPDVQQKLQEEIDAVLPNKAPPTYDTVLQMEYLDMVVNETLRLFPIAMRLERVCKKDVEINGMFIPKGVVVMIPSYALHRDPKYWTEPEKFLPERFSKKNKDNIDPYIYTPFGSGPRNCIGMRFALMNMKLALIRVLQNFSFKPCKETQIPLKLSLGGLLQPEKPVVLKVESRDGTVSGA

[10] = Intrinsic clearance in human liver microsomes measured after 45 mins post NADPH addition
[11] = Oral bioavailability in Sprague-Dawley rat at 2 mg/kg; format: ADME, organism-based; details: in vivo
[12] = biological target: Cytochrome P450 2C19 (Homo sapiens, UniProt P33261); test: Inhibition of CYP2C19; format: ADME
Sequence of Cytochrome P450 2C19 (P33261 whole entry): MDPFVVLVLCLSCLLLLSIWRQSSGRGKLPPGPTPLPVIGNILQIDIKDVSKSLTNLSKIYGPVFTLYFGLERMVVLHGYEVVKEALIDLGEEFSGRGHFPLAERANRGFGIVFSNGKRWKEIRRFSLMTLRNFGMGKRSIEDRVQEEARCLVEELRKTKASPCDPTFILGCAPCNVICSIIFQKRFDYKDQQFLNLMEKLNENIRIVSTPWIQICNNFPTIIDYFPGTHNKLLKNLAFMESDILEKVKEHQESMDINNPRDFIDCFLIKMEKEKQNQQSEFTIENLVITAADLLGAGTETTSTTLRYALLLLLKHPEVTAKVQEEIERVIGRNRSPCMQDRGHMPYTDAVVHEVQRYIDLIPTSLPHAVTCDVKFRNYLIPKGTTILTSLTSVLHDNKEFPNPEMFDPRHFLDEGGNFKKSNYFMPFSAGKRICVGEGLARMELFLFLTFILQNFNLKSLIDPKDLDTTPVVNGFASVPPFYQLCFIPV

[13] = biological target: Cytochrome P450 2C9 (Homo sapiens, UniProt P11712); test: Inhibition of CYP2C9; format: ADME
Sequence of Cytochrome P450 2C9 (P11712 whole entry): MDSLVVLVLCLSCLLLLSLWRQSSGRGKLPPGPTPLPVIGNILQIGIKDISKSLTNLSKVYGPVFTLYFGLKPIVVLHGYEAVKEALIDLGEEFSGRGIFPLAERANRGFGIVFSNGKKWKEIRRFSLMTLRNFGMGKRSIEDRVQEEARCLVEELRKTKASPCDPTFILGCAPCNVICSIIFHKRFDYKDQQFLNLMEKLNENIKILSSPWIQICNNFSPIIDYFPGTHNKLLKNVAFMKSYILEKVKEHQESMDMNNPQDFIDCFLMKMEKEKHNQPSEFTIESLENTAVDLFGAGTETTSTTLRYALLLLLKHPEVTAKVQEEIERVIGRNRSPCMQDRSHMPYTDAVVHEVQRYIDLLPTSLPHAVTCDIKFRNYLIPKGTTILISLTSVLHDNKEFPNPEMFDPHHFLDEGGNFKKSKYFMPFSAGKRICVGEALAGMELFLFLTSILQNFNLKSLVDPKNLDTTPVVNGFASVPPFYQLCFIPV

[14] = biological target: T3, Cytochrome P450 1A2 (Homo sapiens, UniProt P05177); test: Inhibition of CYP1A2; format: ADME
T3 sequence (P05177 whole entry): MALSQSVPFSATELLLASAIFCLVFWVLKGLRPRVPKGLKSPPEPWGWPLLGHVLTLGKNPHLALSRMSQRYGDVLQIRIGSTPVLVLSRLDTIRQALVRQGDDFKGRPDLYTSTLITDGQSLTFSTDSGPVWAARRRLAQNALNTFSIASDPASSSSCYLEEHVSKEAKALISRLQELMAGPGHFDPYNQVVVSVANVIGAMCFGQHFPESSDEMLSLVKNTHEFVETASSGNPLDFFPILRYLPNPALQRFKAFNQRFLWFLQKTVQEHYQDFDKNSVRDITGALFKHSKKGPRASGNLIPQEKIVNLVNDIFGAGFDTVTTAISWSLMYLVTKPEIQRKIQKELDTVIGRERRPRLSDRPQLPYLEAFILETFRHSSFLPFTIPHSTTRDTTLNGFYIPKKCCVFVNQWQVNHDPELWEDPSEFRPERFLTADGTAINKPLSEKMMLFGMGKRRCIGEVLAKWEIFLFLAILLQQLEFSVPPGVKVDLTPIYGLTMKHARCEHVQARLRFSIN

[15] = Time dependent inhibition of CYP; format: ADME
[16] = Clearance in Sprague-Dawley rat at 2 mg/kg, iv; details: in vivo
[17] = Intrinsic clearance in human hepatocytes assessed per 10^6 cells measured after 90 mins
[18] = Half life in Sprague-Dawley rat at 2 mg/kg, iv; details: in vivo
[19] = biological target: Cytochrome P450 2D6 (Homo sapiens, UniProt P10635); test: Inhibition of CYP2D6; format: ADME
Sequence of Cytochrome P450 2D6 (P10635 whole entry): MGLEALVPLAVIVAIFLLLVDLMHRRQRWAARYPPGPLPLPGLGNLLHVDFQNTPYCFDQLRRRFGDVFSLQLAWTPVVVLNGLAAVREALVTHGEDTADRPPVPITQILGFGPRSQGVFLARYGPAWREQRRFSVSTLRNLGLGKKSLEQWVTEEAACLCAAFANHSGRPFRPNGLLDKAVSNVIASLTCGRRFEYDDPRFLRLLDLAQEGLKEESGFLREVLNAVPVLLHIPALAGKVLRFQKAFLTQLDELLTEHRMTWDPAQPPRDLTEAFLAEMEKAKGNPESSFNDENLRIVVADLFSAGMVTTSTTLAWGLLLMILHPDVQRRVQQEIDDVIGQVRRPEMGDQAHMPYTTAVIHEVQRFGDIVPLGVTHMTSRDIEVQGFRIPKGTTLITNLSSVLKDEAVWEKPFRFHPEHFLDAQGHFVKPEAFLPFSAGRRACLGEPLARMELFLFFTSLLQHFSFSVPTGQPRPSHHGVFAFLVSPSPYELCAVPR

[20] = Fraction unbound in Sprague-Dawley rat plasma; format: ADME, cell-free; details: Sprague-Dawley
[21] = Fraction unbound in human plasma; format: ADME, cell-free
[22] = Thermodynamic solubility of compound by shake-flask technique; format: physicochemical; details: read-out: Therm_solubility
[23] = Plasma clearance in bile duct cannulated Sprague-Dawley rat; format: ADME, organism-based
[24] = […] pKa of the compound; format: physicochemical
[25] = Ratio of drug level in blood to plasma in Sprague-Dawley rat; format: ADME

SMILES: Cc1ccc(S(=O)(=O)Nc2c(C(=O)N[C@@H](C)C(C)(C)C)c(C)nn2C2CCCCC2)cc1
IC50 [2]: 31.6 nM | CLH [3]: 23 µL/min | hepatocyte CLint at […] [4]: 8 µL/min/1e6 cells

SMILES: COCC(C)n1nc(C)c(C(=O)N[C@@H](C)C(C)(C)C)c1NS(=O)(=O)c1ccc(C)cc1 (some centres not stated)
IC50 [2]: 2510 nM | hepatocyte CLint at […] [4]: < 3 µL/min/1e6 cells

SMILES: Cc1ccc(S(=O)(=O)Nc2c(C(=O)N[C@@H](C)C(C)(C)C)c(C)nn2C2CCCC2)cc1
IC50 [2]: 79.4 nM | CLH [3]: 12 µL/min | hepatocyte CLint at […] [4]: 8 µL/min/1e6 cells

SMILES: Cc1ccc(S(=O)(=O)Nc2c(C(=O)N[C@@H](C)C(C)(C)C)c(C)nn2C2CCC2)cc1
IC50 [2]: 200 nM | hepatocyte CLint at […] [4]: 17 µL/min/1e6 cells

SMILES: Cc1ccc(S(=O)(=O)Nc2c(C(=O)N[C@@H](C)C(C)(C)C)c(C)nn2C2CCN(CC(F)(F)F)CC2)cc1
IC50 [2]: 3160 nM

SMILES: Cc1nn(-c2ccc(F)cc2)c(NS(=O)(=O)c2ccc(C#N)cc2)c1C(=O)N[C@@H](C)C(C)(C)C
Vd [5]: 0.23 L/kg | clearance [23]: 21 mL/min/kg | pKa [24]: 3 | blood plasma ratio [25]: 0.7 | microsomal CLint at 0.75 h [10]: 5 µL/min/mg | bioavailability [11]: 5% | CLH [3]: 33 µL/min | clearance [16]: 42 mL/min/kg | hepatocyte CLint at […] [17]: < 3 µL/min/1e6 cells | half-life [18]: 0.6 h | hepatocyte CLint at […] [4]: < 4 µL/min/1e6 cells | solubility thermodynamic [22]: > 2010 µM | fraction unbound [20]: 0.043 | fraction unbound [21]: 0.08

More lines, main results first:

inhibition [1]: < 30%
SMILES: Cc1ccc(S(=O)(=O)Nc2c(C(=O)N[C@@H](C)C(C)(C)C)c(C)nn2C2CCN(C)CC2)cc1

IC50 [2]: 25100 nM
SMILES: CCC(CC)NC(=O)c1c(C)nn(C(C)C)c1NS(=O)(=O)c1ccc(C)cc1

IC50 [2]: 316 nM
SMILES: Cc1ccc(S(=O)(=O)Nc2c(C(=O)N[C@@H](C)C(C)(C)C)c(C)nn2C2CCOCC2)cc1

Vd [5]: 1.2 L/kg | logD [6]: 1.3 | Kb [8]: 20 nM | IC50 [9]: > 10000 nM | microsomal CLint at 0.75 h [10]: 8 µL/min/mg | IC50 [2]: 3.98 nM | bioavailability [11]: 80% | IC50 [12]: > 10000 nM | IC50 [13]: > 10000 nM | IC50 [14]: > 10000 nM | pIC50 [15]: < 5 | clearance [16]: 5.5 mL/min/kg | hepatocyte CLint at […] [17]: 3.6 µL/min/1e6 cells | half-life [18]: 2.8 h | hepatocyte CLint at […] [4]: 3 µL/min/1e6 cells | IC50 [19]: > 10000 nM | fraction unbound [20]: 0.1 | fraction unbound [21]: 0.073
SMILES: CO[C@H]1CC[C@@H](n2nc(C)c(C(=O)N[C@@H](C)C(C)(C)C)c2NS(=O)(=O)c2ccc(C)cc2)CC1
IC50 [7]: > 50100 nM

Vd [5]: 0.5 L/kg | logD [6]: 1.2 | Kb [8]: 794 nM | IC50 [9]: > 10000 nM | IC50 [2]: 158 nM | bioavailability [11]: 83% | IC50 [12]: > 10000 nM | IC50 [13]: > 10000 nM | IC50 [14]: > 10000 nM | pIC50 [15]: < 5 | IC50 [19]: > 10000 nM | solubility thermodynamic [22]: > 2800 µM | fraction unbound [20]: 0.111 | fraction unbound [21]: 0.075
SMILES: Cc1nn(C2CCOCC2)c(NS(=O)(=O)c2ccc(C3CC3)cc2)c1C(=O)N[C@@H](C)C(C)(C)C
IC50 [7]: > 50100 nM

Reference: ChEMBL document CHEMBL1932964, “Lead optimisation of pyrazoles as novel FPR1 antagonists” (Bioorg Med Chem Lett, 2012)
